Values quoted from earlier work, collected in patent US4559324A, “Polypeptide-diesters, their production and use” (Takeda Chemical Industries, Ltd., priority 1982, dated 1985).

Test system: Substance P
Conditions: S. Rosell and K. Folkers, TIPS, 211 (1982)

## (D-Pro^2, D-Phe^7, D-Trp^9)-Substance P
  antagonist activity against Substance P: sufficiently active

## (D-Pro^2, D-Trp^7, D-Trp^9)-Substance P
  antagonist activity against Substance P: sufficiently active
